Data on 24 compounds can be found in patent US10336762B2 (priority 2017, dated 2019).

Like-named read-outs stand apart in the source and are kept apart here.

In one assay the test system is TNFα. The assay is described as follows: cells. The class given is cell-based, human. The note with it: LPS-stimulated human monocytes, TNFα by TR-FRET, read-out: EC50 TNF. (In general: In TR-FRET formats the signal depends on donor and acceptor labels being close together.)
The next assay concerns the target IRAK4 enzyme (Homo sapiens (Human), UniProt Q9NWZ3). Description: biochemical. The format is biochemical. The settings on record: IRAK4 enzyme, TR-FRET, 500 μM ATP.

Chain of IRAK4 enzyme (Q9NWZ3 whole entry): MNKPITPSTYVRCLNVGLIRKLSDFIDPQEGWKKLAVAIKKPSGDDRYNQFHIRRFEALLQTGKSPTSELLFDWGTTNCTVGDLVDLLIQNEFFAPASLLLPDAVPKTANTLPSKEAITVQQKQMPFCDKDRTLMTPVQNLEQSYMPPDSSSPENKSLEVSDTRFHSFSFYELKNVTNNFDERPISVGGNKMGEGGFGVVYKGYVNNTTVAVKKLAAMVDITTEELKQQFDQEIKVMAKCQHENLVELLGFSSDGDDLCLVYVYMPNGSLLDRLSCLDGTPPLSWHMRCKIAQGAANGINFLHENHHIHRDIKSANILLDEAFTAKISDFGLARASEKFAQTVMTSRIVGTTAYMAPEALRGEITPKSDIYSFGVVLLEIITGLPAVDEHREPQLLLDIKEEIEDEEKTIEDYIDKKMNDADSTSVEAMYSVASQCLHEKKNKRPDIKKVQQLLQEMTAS

Regarding `COC(=O)N1CCC12CC(Nc1cc(-c3ccc4cc(C#N)cnn34)ncc1C(=O)NC[C@@H](F)C(C)(C)O)C2` (stereo partly drawn) [Example 912, (4R,6s)-methyl 6-((2-(3-cyanopyrrolo[1,2-b]pyridazin-7-yl)-5-(((R)-2-fluoro-3-hydroxy-3-methylbutyl)carbamoyl)pyridin-4-yl)amino)-1-azaspiro[3.3]heptane-1-carboxylate], the EC50 in the assay on TNFα turned out to be 176 nM. At IRAK4 enzyme, this compound gave a half-maximal inhibitory concentration (IC50) of 6 nM.

Turning to `CC(C)(O)[C@H](F)CNC(=O)c1cnc(-c2ccc3cc(C#N)cnn23)cc1NC1CC2(CCN2CC(F)(F)F)C1` (stereo partly drawn) [Example 913, 6-(3-cyanopyrrolo[1,2-b]pyridazin-7-yl)-N-((R)-2-fluoro-3-hydroxy-3-methylbutyl)-4-(((4R,6s)-1-(2,2,2-trifluoroethyl)-1-azaspiro[3.3]heptan-6-yl)amino)nicotinamide], the 50% effective concentration (EC50) in the assay with TNFα amounted to 226 nM. Besides, on IRAK4 enzyme, 3 nM corresponded to half-maximal inhibition (IC50).

Take `CC(C)(O)[C@H](F)CNC(=O)c1cnc(-c2ccc3cc(C#N)cnn23)cc1Nc1cnn([C@H]2CNC[C@H]2F)c1` [Example 914, 6-(3-cyanopyrrolo[1,2-b]pyridazin-7-yl)-N-((R)-2-fluoro-3-hydroxy-3-methylbutyl)-4-((1-((3S,4R)-4-fluoropyrrolidin-3-yl)-1H-pyrazol-4-yl)amino)nicotinamide]: the EC50 in the assay on TNFα (Homo sapiens, Monocyte) stood at 13 nM. Moreover, the IC50 against IRAK4 enzyme was below 1 nM.

`COC[C@@H]1CCN1c1ccc(Nc2cc(-c3ccc4cc(C#N)cnn34)ncc2C(=O)NC[C@@H](F)C(C)(C)O)cn1` [Example 915, 6-(3-cyanopyrrolo[1,2-b]pyridazin-7-yl)-N-((R)-2-fluoro-3-hydroxy-3-methylbutyl)-4-((6-((S)-2-(methoxymethyl)azetidin-1-yl)pyridin-3-yl)amino) nicotinamide]: the EC50 with TNFα (Homo sapiens, Monocyte) worked out at 28 nM. Besides, half-maximal inhibition against IRAK4 enzyme (IC50) was put at 1 nM.

In the case of `CC(C)(O)[C@H](F)CNC(=O)c1cnc(-c2ccc3cc(C#N)cnn23)cc1NC[C@H]1COCCN1` [Example 916, 6-(3-cyanopyrrolo[1,2-b]pyridazin-7-yl)-N-((R)-2-fluoro-3-hydroxy-3-methylbutyl)-4-((((S)-morpholin-3-yl)methyl)amino)nicotinamide], the concentration giving a half-maximal response (EC50) with TNFα (Homo sapiens, Monocyte) is 88 nM. Besides, the midpoint of inhibition at IRAK4 enzyme, the IC50, lay at 3 nM.

With `CC(C)(O)[C@H](F)CNC(=O)c1cnc(-c2ccc3cc(C#N)cnn23)cc1NC[C@@H]1COCCN1` [Example 917, 6-(3-cyanopyrrolo[1,2-b]pyridazin-7-yl)-N-((R)-2-fluoro-3-hydroxy-3-methylbutyl)-4-((((R)-morpholin-3-yl)methyl)amino)nicotinamide], the EC50 in the assay with TNFα (Homo sapiens, Monocyte) came out at 72 nM. At IRAK4 enzyme, the IC50 was determined as 1 nM.

Regarding `COC(=O)N1CCOC[C@H]1CNc1cc(-c2ccc3cc(C#N)cnn23)ncc1C(=O)NC[C@@H](F)C(C)(C)O` [Example 918, (R)-methyl 3-(((2-(3-cyano-pyrrolo[1,2-b]pyridazin-7-yl)-5-(((R)-2-fluoro-3-hydroxy-3-methylbutyl)carbamoyl)pyridin-4-yl)amino)methyl)morpholine-4-carboxylate], the EC50 in the assay with TNFα (Homo sapiens, Monocyte) was 416 nM. For the same compound, at IRAK4 enzyme, the IC50 was 31 nM.

With `COC(=O)N1CCOC[C@@H]1CNc1cc(-c2ccc3cc(C#N)cnn23)ncc1C(=O)NC[C@@H](F)C(C)(C)O` [Example 919, (S)-methyl 3-(((2-(3-cyano-pyrrolo[1,2-b]pyridazin-7-yl)-5-(((R)-2-fluoro-3-hydroxy-3-methylbutyl)carbamoyl)pyridin-4-yl)amino)methyl)morpholine-4-carboxylate], in the assay on TNFα (Homo sapiens, Monocyte), the EC50 was determined as 707 nM. This compound returned an IC50 on IRAK4 enzyme of 37 nM.

As for `CC(C)(O)[C@H](F)CNC(=O)c1cnc(-c2ccc3cc(C#N)cnn23)cc1Nc1cnc(N2CC3CC(C2)O3)nc1` [Example 920, 4-((2-(6-oxa-3-aza-bicyclo[3.1.1]heptan-3-yl)pyrimidin-5-yl)amino)-6-(3-cyanopyrrolo[1,2-b]pyridazin-7-yl)-N-((R)-2-fluoro-3-hydroxy-3-methyl-butyl)nicotinamide], in the assay on TNFα (Homo sapiens, Monocyte), the EC50 is 8 nM. The same compound returned an IC50 against IRAK4 enzyme below 1 nM.

As to `CC(C)(O)[C@H](F)CNC(=O)c1cnc(-c2ccc3cc(C#N)cnn23)cc1Nc1cnc(N2CCNCC2)nc1` [Example 921, (R)-6-(3-cyanopyrrolo[1,2-b]pyridazin-7-yl)-N-(2-fluoro-3-hydroxy-3-methyl-butyl)-4-((2-(piperazin-1-yl)pyrimidin-5-yl)amino) nicotinamide], the EC50 in the assay on TNFα (Homo sapiens, Monocyte) worked out at 45 nM. Also, the concentration for half-maximal inhibition (IC50) against IRAK4 enzyme was below 1 nM.

Regarding `CC(C)(O)[C@H](F)CNC(=O)c1cnc(-c2ccc3cc(C#N)cnn23)cc1Nc1ccc(N2CC3CC(C2)O3)nc1` [Example 922, 4-((6-(6-oxa-3-azabicyclo[3.1.1]heptan-3-yl)pyridin-3-yl)amino)-6-(3-cyanopyrrolo[1,2-b]pyridazin-7-yl)-N-((R)-2-fluoro-3-hydroxy-3-methylbutyl)nicotinamide], in the assay on TNFα (Homo sapiens, Monocyte), the EC50 was determined as 42 nM. At IRAK4 enzyme, the half-maximal inhibitory concentration (IC50) is below 1 nM.

Take `N#Cc1cnn2c(-c3cc(NC45CCC(O)(CC4)CC5)c(C(=O)NCC(=O)N4CCC4)cn3)ccc2c1` [Example 923, N-(2-(azetidin-1-yl)-2-oxoethyl)-6-(3-cyanopyrrolo[1,2-b]pyridazin-7-yl)-4-((4-hydroxybicyclo[2.2.2]octan-1-yl)amino) nicotinamide]: the concentration giving a half-maximal response (EC50) in the assay with TNFα (Homo sapiens, Monocyte) is 52 nM. This compound yielded an IC50 against IRAK4 enzyme below 1 nM.

As for `CC1(C)CC1CNC(=O)c1cnc(-c2ccc3cc(C#N)cnn23)cc1NC12CCC(O)(CC1)CC2` (stereo not drawn) [Example 924, 6-(3-cyanopyrrolo[1,2-b]pyridazin-7-yl)-N-((2,2-dimethylcyclopropyl)methyl)-4-((4-hydroxy-bicyclo[2.2.2]octan-1-yl)amino)nicotinamide], in the assay with TNFα (Homo sapiens, Monocyte), the EC50 came to 119 nM. In addition, at IRAK4 enzyme, the midpoint of inhibition, the IC50, lay at 1 nM.

Consider `Cn1cncc1CNC(=O)c1cnc(-c2ccc3cc(C#N)cnn23)cc1NC12CCC(O)(CC1)CC2` [Example 925, 6-(3-cyanopyrrolo[1,2-b]pyridazin-7-yl)-4-((4-hydroxybicyclo[2.2.2]octan-1-yl)amino)-N-((1-methyl-1H-imidazol-5-yl)methyl)nicotinamide], for which the 50% effective concentration (EC50) with TNFα (Homo sapiens, Monocyte) is 583 nM. Moreover, half-maximal inhibition at IRAK4 enzyme (IC50) was put at 4 nM.

Regarding `Cn1cc(CNC(=O)c2cnc(-c3ccc4cc(C#N)cnn34)cc2NC23CCC(O)(CC2)CC3)cn1` [Example 926, 6-(3-cyanopyrrolo[1,2-b]pyridazin-7-yl)-4-((4-hydroxybicyclo[2.2.2]octan-1-yl)amino)-N-((1-methyl-1H-pyrazol-4-yl)methyl)nicotinamide], in the assay on TNFα (Homo sapiens, Monocyte), the EC50 is 192 nM. Moreover, on IRAK4 enzyme, the IC50 is 2 nM.

In the case of `CC(C)(O)[C@H](F)CNC(=O)c1cnc(-c2ccc3cc(C#N)cnn23)cc1NC1CC(CNC(=O)C2CCC2)C1` (stereo partly drawn) [Example 927, 6-(3-cyanopyrrolo[1,2-b]pyridazin-7-yl)-4-(((1r,3R)-3-(cyclobutanecarboxamido-methyl)cyclobutyl)amino)-N-((R)-2-fluoro-3-hydroxy-3-methylbutyl)nicotinamide], the EC50 in the assay on TNFα (Homo sapiens, Monocyte) is 22 nM. At IRAK4 enzyme, this compound had an IC50 below 1 nM.

For the compound `Cn1ccnc1CNC(=O)c1cnc(-c2ccc3cc(C#N)cnn23)cc1NC12CCC(O)(CC1)CC2` [Example 928, 6-(3-cyanopyrrolo[1,2-b]pyridazin-7-yl)-4-((4-hydroxybicyclo[2.2.2]octan-1-yl)amino)-N-((1-methyl-1H-imidazol-2-yl)methyl)nicotinamide], the EC50 in the assay with TNFα (Homo sapiens, Monocyte) came out at 71 nM. The compound also gave an IC50 at IRAK4 enzyme of 1 nM.

`Cn1cnc(CNC(=O)c2cnc(-c3ccc4cc(C#N)cnn34)cc2NC23CCC(O)(CC2)CC3)c1` [Example 929, 6-(3-cyanopyrrolo[1,2-b]pyridazin-7-yl)-4-((4-hydroxybicyclo[2.2.2]octan-1-yl)amino)-N-((1-methyl-1H-imidazol-4-yl)methyl)nicotinamide]: the half-maximal effective concentration (EC50) with TNFα (Homo sapiens, Monocyte) worked out at 126 nM. The compound further came in with a 50% inhibitory concentration (IC50) against IRAK4 enzyme of 1 nM.

Consider `N#Cc1cnn2c(-c3cc(NC45CCC(O)(CC4)CC5)c(C(=O)NCc4ccccn4)cn3)ccc2c1` [Example 930, 6-(3-cyanopyrrolo[1,2-b]pyridazin-7-yl)-4-((4-hydroxybicyclo[2.2.2]octan-1-yl)amino)-N-(pyridin-2-ylmethyl)nicotinamide], for which the EC50 in the assay with TNFα (Homo sapiens, Monocyte) came to 147 nM. On IRAK4 enzyme, the IC50 is 2 nM.

Turning to `N#Cc1cnn2c(-c3cc(NC45CCC(O)(CC4)CC5)c(C(=O)NCc4cccnc4)cn3)ccc2c1` [Example 931, 6-(3-cyanopyrrolo[1,2-b]pyridazin-7-yl)-4-((4-hydroxybicyclo[2.2.2]octan-1-yl)amino)-N-(pyridin-3-ylmethyl) nicotinamide], the concentration giving a half-maximal response (EC50) in the assay with TNFα (Homo sapiens, Monocyte) stood at 163 nM. Half-maximal inhibition on IRAK4 enzyme (IC50) required 3 nM.

As for `N#Cc1cnn2c(-c3cc(NC45CCC(O)(CC4)CC5)c(C(=O)NCc4ccncc4)cn3)ccc2c1` [Example 932, 6-(3-cyanopyrrolo[1,2-b]pyridazin-7-yl)-4-((4-hydroxybicyclo[2.2.2]octan-1-yl)amino)-N-(pyridin-4-ylmethyl) nicotinamide], in the assay on TNFα (Homo sapiens, Monocyte), the EC50 amounted to 168 nM. The compound also gave an IC50 against IRAK4 enzyme of 3 nM.

Turning to `N#Cc1cnn2c(-c3cc(NC45CCC(O)(CC4)CC5)c(C(=O)NCc4ncccn4)cn3)ccc2c1` [Example 933, 6-(3-cyanopyrrolo[1,2-b]pyridazin-7-yl)-4-((4-hydroxybicyclo[2.2.2]octan-1-yl)amino)-N-(pyrimidin-2-ylmethyl)nicotinamide], the EC50 with TNFα (Homo sapiens, Monocyte) is 269 nM. This compound also came in with an IC50 against IRAK4 enzyme of 4 nM.

As for `Cn1nccc1CNC(=O)c1cnc(-c2ccc3cc(C#N)cnn23)cc1NC12CCC(O)(CC1)CC2` [Example 934, 6-(3-cyanopyrrolo[1,2-b]pyridazin-7-yl)-4-((4-hydroxybicyclo[2.2.2]octan-1-yl)amino)-N-((1-methyl-1H-pyrazol-5-yl)methyl)nicotinamide], the EC50 with TNFα (Homo sapiens, Monocyte) was 271 nM. In addition, the half-maximal inhibitory concentration (IC50) at IRAK4 enzyme stood at 3 nM.

`Cn1ccc(CNC(=O)c2cnc(-c3ccc4cc(C#N)cnn34)cc2NC23CCC(O)(CC2)CC3)n1` [Example 935, 6-(3-cyanopyrrolo[1,2-b]pyridazin-7-yl)-4-((4-hydroxybicyclo[2.2.2]octan-1-yl)amino)-N-((1-methyl-1H-pyrazol-3-yl)methyl)nicotinamide]: the 50% effective concentration (EC50) in the assay with TNFα (Homo sapiens, Monocyte) amounted to 153 nM. At IRAK4 enzyme, this compound registered an IC50 of 2 nM.

For orientation: EC50 means the concentration that produces a half-maximal response. What is called IC50 is the concentration that inhibits the measured activity by half. A low value points to inhibition by little substance.
